Data as given in patent publication US20220380341A1, “INHIBITORS OF HIV-1 NEF FOR THE TREATMENT OF HIV DISEASE” (priority 2018, published 2022).
Like-named read-outs stand apart in the source and are kept apart here.

Tests used:
HIV-1NL4-3 = assay: HIV-1 infectivity assay in TZM-bl reporter cell line (LTR-luciferase, 48 h); type: cell-based; conditions: Human immunodeficiency virus 1, TZM-bl
Method in brief: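 Nef-dependent infectivity in TZM-bl cells: HIV-1NL4-3 infection with 1 μM compound, luciferase read at 48 h, normalized against DMSO wild-type and Nef-defective controls. Compound cytotoxicity in uninfected cells measured by Cell Titer Blue.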

TZM-bl cell line = type: cell-based; conditions: human, 1 μM
Method in brief: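 Read-out is luciferase from an integrated HIV-1 LTR reporter in TZM-bl cells, 48 h after HIV-1NL4-3 infection in the presence of 1 μM compound. Scale set by DMSO-treated wild-type-infected cells (0%) and Nef-defective virus (100% Nef-dependent effect). Cell Titer Blue measures cytotoxicity without virus.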

HIV-1 NefNL4-3 = HIV-1 NefNL4-3 (Human immunodeficiency virus type 1 group M subtype B, UniProt P03406, A33V/T15A/T51N/V11I); assay: Surface plasmon resonance binding to recombinant full-length Nef (NL4-3); conditions: for RU30/RUNef (extent of binding): response units at 30 μM relative to Nef immobilized on the SPR chip
[1] = 1.0 μM, TZM-bl reporter cell line, Table 4, read-out: % Infectivity Inhibition
[2] = KD, M, Table 4, SPR fit 1:1 Langmuir, KD = koff/kon
[3] = Table 4, 1:1 Langmuir fit, T = 1/koff
[4] = KD, M, Table 4, SPR fit 2-step induced fit, KD = koff/kon × koff2/(koff2 + kon2)
[5] = Table 4, 2-step induced fit, T = 1/koff2
[6] = 48 h, Table 1, TZM-bl cells, 1 μM, 48 h, 100% = Nef-defective HIV-1, read-out: HIV-1 Infectivity % Inhibition Norm. to Δ-Nef @ 1 μM
[7] = Nef NL4-3 Binding, SPR 2-state fitting KD, Table 1, 2-step induced-fit model

Oc1c(CC2CCOCC2)c(-c2ccccc2)nn1-c1nc2ccccc2[nH]1 [Compound I-183, 1-(1H-1,3-benzodiazol-2-yl)-4-[(oxan-4-yl)methyl]-3-phenyl-1H-pyrazol-5-ol]
inhibition at 1 µM (HIV-1NL4-3; [1]): 37.8%
% Cell Viability (TZM-bl cell line): 100%
Kd (HIV-1 NefNL4-3; [2]): 2.27 µM
T, minutes (residence time) (HIV-1 NefNL4-3; [3]): 7.61E + 00 minutes
RU30/RUNef (extent of binding) (HIV-1 NefNL4-3): 1.71E- 03

Oc1c(CC2CCOCC2)c(-c2cccc(F)c2)nn1-c1nc2ccccc2[nH]1 [Compound I-184, 1-(1H-1,3-benzodiazol-2-yl)-3-(3-fluorophenyl)-4-[(oxan-4-yl)methyl]-1H-pyrazol-5-ol]
inhibition at 1 µM (HIV-1NL4-3; [1]): 100%
% Cell Viability (TZM-bl cell line): 100%
Kd (HIV-1 NefNL4-3; [2]): 3.52 µM
T, minutes (residence time) (HIV-1 NefNL4-3; [3]): 6.46E + 00 minutes
RU30/RUNef (extent of binding) (HIV-1 NefNL4-3): 2.48E- 03

Oc1c(CC2CCOCC2)c(-c2ccc(F)c(F)c2)nn1-c1nc2ccccc2[nH]1 [Compound I-185, 1-(1H-1,3-benzodiazol-2-yl)-3-(3,4-difluorophenyl)-4-[(oxan-4-yl)methyl]-1H-pyrazol-5-ol]
inhibition at 1 µM (HIV-1NL4-3; [1]): 100%
% Cell Viability (TZM-bl cell line): 95.1%
Kd (HIV-1 NefNL4-3; [4]): 3.4 µM
T, minutes (residence time) (HIV-1 NefNL4-3; [5]): 1.04E + 01 minutes
RU30/RUNef (extent of binding) (HIV-1 NefNL4-3): 4.57E- 03

Oc1c(CC2CCOCC2)c(-c2ccccc2F)nn1-c1nc2ccccc2[nH]1 [Compound I-186, 1-(1H-1,3-benzodiazol-2-yl)-3-(2-fluorophenyl)-4-[(oxan-4-yl)methyl]-1H-pyrazol-5-ol]
inhibition at 1 µM (HIV-1NL4-3; [1]): 61.5%
% Cell Viability (TZM-bl cell line): 99.3%
Kd (HIV-1 NefNL4-3; [4]): 11.7 µM
T, minutes (residence time) (HIV-1 NefNL4-3; [5]): 7.72E + 00 minutes
RU30/RUNef (extent of binding) (HIV-1 NefNL4-3): 1.62E- 02

Oc1c(CC2CCOCC2)c(-c2ccc(F)cc2F)nn1-c1nc2ccccc2[nH]1 [Compound I-187, 1-(1H-1,3-benzodiazol-2-yl)-3-(2,4-difluorophenyl)-4-[(oxan-4-yl)methyl]-1H-pyrazol-5-ol]
inhibition at 1 µM (HIV-1NL4-3; [1]): 20.2%
% Cell Viability (TZM-bl cell line): 100%
Kd (HIV-1 NefNL4-3; [4]): 3.07e-05 µM
T, minutes (residence time) (HIV-1 NefNL4-3; [5]): 1.02E + 06 minutes
RU30/RUNef (extent of binding) (HIV-1 NefNL4-3): 8.62E- 03

CC(C)(C)OC(=O)N1CCC(Cc2nn(-c3nc4ccccc4[nH]3)c(O)c2CCc2ccc(F)cc2)C1 (stereo not shown) [Compound I-206, tert-butyl 3-{[1-(1H-1,3-benzodiazol-2-yl)-4-[2-(4-fluorophenyl)ethyl]-5-hydroxy-1H-pyrazol-3-yl]methyl}pyrrolidine-1-carboxylate]
inhibition at 1 µM (HIV-1NL4-3; [6]): 35.2%
Percent Viability @ 1 μM (TZM-bl cells) (TZM-bl cell line): 90.6%
Nef NL4-3 Binding, SPR 1:1 or 2-site fitting KD1 (HIV-1 NefNL4-3; Table 1, 1:1 Langmuir fit where the KD2 cell says '1 to 1 fitting', else 2-site fit): No Interaction

CC(C)(C)OC(=O)c1ccc(-c2nn(-c3nc4ccccc4[nH]3)c(O)c2CCc2ccc(F)cc2)cc1 [Compound I-208, tert-butyl 4-[1-(1H-1,3-benzodiazol-2-yl)-4-[2-(4-fluorophenyl)ethyl]-5-hydroxy-1H-pyrazol-3-yl]benzoate]
inhibition at 1 µM (HIV-1NL4-3; [1]): 39.2%
inhibition at 1 µM (HIV-1NL4-3; [6]): 39.2%
% Cell Viability (TZM-bl cell line): 90.6%
Percent Viability @ 1 μM (TZM-bl cells) (TZM-bl cell line): 90.6%
Kd (HIV-1 NefNL4-3): 13.8 µM
Kd (HIV-1 NefNL4-3; [4]): 67.8 µM
Kd (HIV-1 NefNL4-3; [7]): 67.8 µM
T, minutes (residence time) (HIV-1 NefNL4-3; [5]): 3.95E- 02 minutes
RU30/RUNef (extent of binding) (HIV-1 NefNL4-3): 1.63E- 02

CC(C)(C)OC(=O)N1C[C@@H]2[C@H](C1)[C@H]2c1nn(-c2nc3ccccc3[nH]2)c(O)c1CCc1ccc(F)cc1 [Compound I-209, tert-butyl 6-[1-(1H-1,3-benzodiazol-2-yl)-4-[2-(4-fluorophenyl)ethyl]-5-hydroxy-1H-pyrazol-3-yl]-3-azabicyclo[3.1.0]hexane-3-carboxylate]
inhibition at 1 µM (HIV-1NL4-3; [1]): 4.2%
inhibition at 1 µM (HIV-1NL4-3; [6]): 4.2%
% Cell Viability (TZM-bl cell line): 100%
Percent Viability @ 1 μM (TZM-bl cells) (TZM-bl cell line): 100.1%
Kd (HIV-1 NefNL4-3): 0.776 µM
Kd (HIV-1 NefNL4-3; [4]): 4.83 µM
Kd (HIV-1 NefNL4-3; [7]): 5.83 µM
T, minutes (residence time) (HIV-1 NefNL4-3; [5]): 3.81E- 01 minutes
RU30/RUNef (extent of binding) (HIV-1 NefNL4-3): 8.59E- 03
